Laboratory results as given in patent publication US12576052B2, “Metformin inhalation powder aerosol for treating idiopathic pulmonary fibrosis and preparation method thereof” (Wenzhou Medical University, priority 2022, dated 2026).

What was measured:
[1] = mouse, in vivo
Source text: (§1) According to the experimental results and the conversion rules of equivalent dose between different species (as shown in table 3), the no observable adverse effect level (NOAEL) of mice is converted into the human equivalent dose HED.
(§2) Among them, NOAEL: no observable adverse effect level dose obtained through animal preclinical toxicology research; HED: human equivalent dose.

α-SMA = α-SMA immunofluorescence of lung tissue in bleomycin-induced pulmonary fibrosis mice; assay type: in vivo, C57BL6 mice; settings: BLM+Met vs BLM group; inhalation powder aerosol of Embodiment 2, 5 mg per mouse every day for 3 weeks; FIG. 7
Protocol: Among them, BLM: bleomycin-induced pulmonary fibrosis mouse model group; BLM+Met: the effect of atomization inhalation of metformin on macroscopic damage of lung in mice with pulmonary fibrosis.
Dosage of inhaled metformin: the reference value of local administration concentration of metformin in upper respiratory tract is 200 mg/kg. […]
α-SMA immunofluorescence: lung tissue slides are dried at 65° C., dewaxed with xylene and dehydrated with gradient alcohol. […] The slides are sealed and the fluorescence intensity is observed under a fluorescence microscope.
Statistical analysis: the experimental data of each group are statistically analyzed by GraphpadPrism9.0 software. All the experimental data are tested for normality, and the measurement data are expressed as mean±standard deviation. […]

[2] = NOAEL of mice and conversion into human equivalent dose (HED)
Source text: as §1, §2

[3] = system: mice with pulmonary fibrosis; test: Bleomycin-induced pulmonary fibrosis mouse model: body weight, macroscopic lung damage, HE and Masson staining; assay type: in vivo, C57BL6 mice; settings: inhalation powder aerosol of Embodiment 2, 5 mg per mouse every day for 3 weeks
Protocol: Establishment of pulmonary fibrosis model: C57BL6 mice aged 6-8 weeks are selected and adapted for one week. Bleomycin (3 mg/kg/50 μl) is given orally to mice in BLM group and BLM+Met group on the first day, and the dry powder of bleomycin is prepared to the required concentration with sterile phosphate buffer saline non-surgical method of bleomycin orally injected into mice's lungs: mice are anesthetized with isoflurane and hung on the operating board at 70°. Bleomycin is dripped orally using a 200 μl pipette).
Dosage of inhaled metformin: the reference value of local administration concentration of metformin in upper respiratory tract is 200 mg/kg. According to the weight of 25 g per mouse, each mouse inhales 5 mg of metformin inhalation powder aerosol in Embodiment 2 every day for 3 weeks.
Weighing: weights of the mice are weighed at a fixed time every morning and recorded, and the changes of mice's weight are observed at different times in each group.
Hematoxylin Eosin (HE) staining and Masson staining: the lung tissue of mice is fixed in 4% paraformaldehyde for 24 hours, washed overnight with running water, dehydrated by conventional alcohol, embedded in paraffin, cut into 5-micron slides, stained with HE and Masson, and sealed with neutral gum after applying xylene for transparency. The pathological changes of lung are observed under optical microscope and photos are taken.
Statistical analysis: the experimental data of each group are statistically analyzed by GraphpadPrism9.0 software. All the experimental data are tested for normality, and the measurement data are expressed as mean±standard deviation. The mean of multiple groups of samples is compared by One-way Analysis of Variance (one-way ANOVA). P<0.05 is statistically significant. The results are shown in FIG. 5A, FIG. 5B, FIG. 6 and FIG. 7.

IPF patients = settings: after 52 weeks of treatment; cited from earlier work

CN(C)C(=N)N=C(N)N [Metformin, metformin]
maximum recommended initial inhalation dose for the first human study [1]: 97.8 mg | expression of α-SMA (immunofluorescence) (α-SMA): decreased significantly | NOAEL at 3 weeks ([2]; C57BL6, mouse, in vivo, inhaled or intranasal, 200 mg/kg): 200 mg/kg | HED (human equivalent dose) ([2]; NOAEL of mice/12.3): 16.3 mg/kg | alveolar structure (Masson and HE staining) ([3]; BLM+Met group, FIG. 6): complete | inflammatory cells in alveolar cavity and alveolar septum ([3]; BLM+Met group, FIG. 6): no obvious inflammatory cells | body weight of mice with pulmonary fibrosis ([3]; BLM+Met vs BLM group, FIG. 5A): decreased | macroscopic damage of lung ([3]; BLM+Met vs BLM group, FIG. 5B): pink, with smooth surface and elastic touch | collagen fibers (Masson and HE staining) ([3]; BLM+Met vs BLM group, FIG. 6): significantly reduced | degree of fibrosis (Masson and HE staining) ([3]; BLM+Met vs BLM group, FIG. 6): significantly improved

Cc1ccc(=O)n(-c2ccccc2)c1 [pirfenidone]
disease progression of IPF patients (IPF patients): effectively slow down the disease progression
